Holding throughout (format): biochemical
For one assay, the target named is TACE (Homo sapiens, UniProt P78536). As to the kind of experiment: TACE inhibition (fluorescent peptidyl substrate). The settings on record: for IC50: read-out: TACE IC50.
The target of the next assay is MMP-13 (Homo sapiens, UniProt P45452). As to the kind of experiment: MMP-13 inhibition (thiopeptide or fluorescent peptide substrate assay). The conditions noted are these: for IC50: read-out: MMP-13 IC50.
The target in another assay is MMP-9 (Homo sapiens, UniProt P14780). Briefly: MMP-9 inhibition (thiopeptide or fluorescent peptide substrate assay). The conditions noted are these: for IC50: read-out: MMP-9 IC50.
In another assay the target is T1, MMP-1 (Homo sapiens, UniProt P03956).
T1 sequence (P03956 100-469): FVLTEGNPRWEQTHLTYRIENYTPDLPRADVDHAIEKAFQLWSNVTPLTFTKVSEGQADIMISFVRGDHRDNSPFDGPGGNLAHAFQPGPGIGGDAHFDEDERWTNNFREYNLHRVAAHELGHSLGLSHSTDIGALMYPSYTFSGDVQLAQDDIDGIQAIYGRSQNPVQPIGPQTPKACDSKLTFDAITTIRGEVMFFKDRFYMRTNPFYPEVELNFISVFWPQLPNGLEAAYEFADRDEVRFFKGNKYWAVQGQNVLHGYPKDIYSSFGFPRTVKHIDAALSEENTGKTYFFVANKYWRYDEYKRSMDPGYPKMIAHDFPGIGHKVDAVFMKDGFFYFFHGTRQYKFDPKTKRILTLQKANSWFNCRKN
Briefly: MMP-1 inhibition (thiopeptide or fluorescent peptide substrate assay). The settings on record: for IC50: read-out: MMP-1 IC50; for MMP-1 % inhibition: concentration given as (10), unit not given.

For orientation: IC50 means the concentration needed to halve the response being measured. As usually defined, the inhibition is the change of the read-out against control, counted positive when it falls.

Sequence of TACE (P78536 215-824): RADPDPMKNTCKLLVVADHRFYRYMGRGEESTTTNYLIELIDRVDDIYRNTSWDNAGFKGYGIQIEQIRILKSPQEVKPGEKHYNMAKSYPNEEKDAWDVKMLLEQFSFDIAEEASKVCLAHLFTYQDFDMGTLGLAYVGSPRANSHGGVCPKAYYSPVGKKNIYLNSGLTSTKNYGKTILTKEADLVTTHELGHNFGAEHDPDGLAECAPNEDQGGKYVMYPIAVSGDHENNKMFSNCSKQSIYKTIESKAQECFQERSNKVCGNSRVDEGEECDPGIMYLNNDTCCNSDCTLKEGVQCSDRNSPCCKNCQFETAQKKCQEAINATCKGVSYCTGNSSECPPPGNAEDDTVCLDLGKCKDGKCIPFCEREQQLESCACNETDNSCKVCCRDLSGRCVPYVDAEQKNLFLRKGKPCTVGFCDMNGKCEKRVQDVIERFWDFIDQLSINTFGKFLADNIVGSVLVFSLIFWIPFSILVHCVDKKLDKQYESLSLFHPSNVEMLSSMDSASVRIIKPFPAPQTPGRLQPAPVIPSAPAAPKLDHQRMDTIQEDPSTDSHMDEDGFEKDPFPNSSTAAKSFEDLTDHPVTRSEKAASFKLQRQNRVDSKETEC
Sequence of MMP-9 (P14780 94-707): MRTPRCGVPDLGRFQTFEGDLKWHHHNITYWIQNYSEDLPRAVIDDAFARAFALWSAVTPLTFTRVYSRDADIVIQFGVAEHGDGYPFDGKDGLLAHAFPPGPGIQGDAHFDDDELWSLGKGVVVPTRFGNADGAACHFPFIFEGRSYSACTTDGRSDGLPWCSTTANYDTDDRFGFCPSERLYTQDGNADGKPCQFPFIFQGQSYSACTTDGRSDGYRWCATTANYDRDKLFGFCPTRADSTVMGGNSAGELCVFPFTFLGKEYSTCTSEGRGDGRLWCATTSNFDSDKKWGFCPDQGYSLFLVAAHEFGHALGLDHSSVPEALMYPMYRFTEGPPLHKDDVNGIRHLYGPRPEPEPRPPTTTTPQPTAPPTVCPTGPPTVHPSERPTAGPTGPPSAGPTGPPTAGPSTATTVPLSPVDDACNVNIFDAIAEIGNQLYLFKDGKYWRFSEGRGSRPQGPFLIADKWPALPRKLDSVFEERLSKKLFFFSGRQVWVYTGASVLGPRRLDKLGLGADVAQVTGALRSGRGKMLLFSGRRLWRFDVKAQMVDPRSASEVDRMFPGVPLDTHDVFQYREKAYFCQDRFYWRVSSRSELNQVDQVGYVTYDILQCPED
Protocol for MMP-13: The enzyme activity is measured by the rate of the color increase. The thiopeptide substrate is made up fresh as a 20 mM stock in 100% DMSO and the DTNB is dissolved in 100% DMSO as a 100 mM stock and stored in the dark at room temperature. Both the substrate and DTNB are diluted together to 1 mM with substrate buffer (50 mM HEPES pH 7.5, 5 mM CaCl2) before use. […] Alternatively, a fluorescent peptide substrate is used. In this assay, the peptide substrate contains a fluorescent group and a quenching group. Upon cleavage of the substrate by an MMP, the fluorescence that is generated is quantitated on the fluorescence plate reader. […] The substrate is dissolved in methanol and stored frozen in 1 mM aliquots. For the assay, substrate and enzymes are diluted in HCBC buffer to the desired concentrations. Compounds are added to the 96 well plate containing enzyme and the reaction is started by the addition of substrate. […] For either the thiopeptide or fluorescent peptide assays, the slope of the line is calculated and represents the reaction rate. […] The mean (x±sem) of the control rate is calculated and compared for statistical significance (p<0.05) with drug-treated rates using Dunnett's multiple comparison test.

In the case of `COc1ccc(S(=O)(=O)N(Cc2ccsc2)c2c(CN3CCN(C)CC3)cccc2C(=O)NO)cc1` [Example 328, N-Hydroxy-2-[(4-methoxy-benzenesulfonyl)-thiophen-3-ylmethyl-amino]-3-(4-methyl-piperazin-1-ylmethyl)-benzamide], the concentration for half-maximal inhibition (IC50) on TACE was determined as 263 nM; at MMP-13, 13 nM; on MMP-9 it was 4.9 nM; on MMP-1, 326 nM.

For `COc1ccc(S(=O)(=O)N(Cc2ccccc2)c2c(CN3CCN(C)CC3)cccc2C(=O)NO)cc1` [Example 329, N-Hydroxy-2-[[(4-methoxyphenyl)sulfonyl](phenylmethyl)-amino]-3-[(4-methyl-1-piperazinyl)methyl]benzamide], the half-inhibitory concentration (IC50) on TACE amounted to 173 nM; on MMP-13 it was 23 nM; at MMP-9, 6.1 nM; at MMP-1, 319 nM.

`COc1ccc(S(=O)(=O)N(Cc2cccnc2)c2c(COC3CCCCO3)cccc2C(=O)NO)cc1` (stereo not drawn) [Example 339, N-Hydroxy-2-[(4-methoxy-benzenesulfonyl)-pyridin-3-ylmethyl-amino]-3-(tetrahydro-pyran-2-yloxymethyl)-benzamide]: the IC50 on TACE stood at 564 nM; at MMP-13, 5.7 nM; on MMP-9, 5.2 nM; on MMP-1, 216 nM.

On to `COc1ccc(S(=O)(=O)N(Cc2cccnc2)c2c(CO)cccc2C(=O)NO)cc1` [Example 340, N-Hydroxy-3-hydroxymethyl-2-[(4-methoxy-benzenesulfonyl)-pyridin-3-ylmethyl-amino]-benzamide], for which the IC50 on TACE came out at 110 nM; at MMP-13, 30 nM; at MMP-9, 11 nM; on MMP-1 it was 522 nM.

For `COc1ccc(S(=O)(=O)N(Cc2ccccc2)c2c(OCCO[Si](C)(C)C(C)(C)C)cccc2C(=O)NO)cc1` [Example 344, 2-[Benzyl-(4-methoxy-benzenesulfonyl)-amino]-3-[2-(tert-butyl-dimethyl-silanyloxy)-ethoxy]-N-hydroxy-benzamide], the IC50 on TACE amounted to 529 nM; at MMP-13 it was 320 nM; on MMP-9, 69 nM; at MMP-1 it was 1170 nM.

For `COc1ccc(S(=O)(=O)N(Cc2ccccc2)c2c(OCCO)cccc2C(=O)NO)cc1` [Example 345, 2-[Benzyl-(4-methoxy-benzenesulfonyl)-amino]-N-hydroxy-3-(2-hydroxy-ethoxy)-benzamide], the IC50 at TACE came to 523 nM; on MMP-13, 134 nM; at MMP-9, 31 nM; at MMP-1 it was 1160 nM.

For the molecule `COc1ccc(S(=O)(=O)N(C)c2c(CCC(=O)NO)cc(Br)cc2C(=O)NO)cc1` [Example 349, 5-Bromo-N-hydroxy-3-[2-(hydroxycarbamoyl)-ethyl]-2-[(4-methoxy-benzenesulfonyl)-methyl-amino]-benzamide], the IC50 on TACE was found to be 32 nM; at MMP-13, 9 nM; at MMP-9, 8 nM; at MMP-1, 396 nM.

Regarding `COc1ccc(S(=O)(=O)N(C)c2c(CCC(=O)NO)cccc2C(=O)NO)cc1` [Example 350], the IC50 on TACE was found to be 373 nM; on MMP-13, 21 nM; at MMP-9, 5 nM; on MMP-1 it was 450 nM.

Take `COc1ccc(S(=O)(=O)N(C)c2c(C)cc(C#Cc3ccc(-c4ccccc4)cc3)cc2C(=O)NO)cc1` [Example 353, 5-Biphenyl-4-ylethynyl-N-hydroxy-2-[(4-methoxy-benzenesulfonyl)-methyl-amino]-3-methyl-benzamide]: the IC50 at TACE worked out at 780 nM; on MMP-13, 141 nM; on MMP-9, 61 nM. In addition, the inhibition at 1 µM at MMP-1 (read-out: MMP-1 % inhibition, footnote: 1µM) worked out at 23%.

Regarding `COc1ccc(S(=O)(=O)N(C)c2c(C)cc(CCc3ccc(-c4ccccc4)cc3)cc2C(=O)NO)cc1` [Example 355, 5-(2-Biphenyl-4-yl-ethyl)-N-hydroxy-2-[(4-methoxy-benzenesulfonyl)-methyl-amino]-3-methyl-benzamide], the half-maximal inhibitory concentration (IC50) on TACE amounted to 288 nM; at MMP-13, 20 nM; at MMP-9, 28 nM; on MMP-1, 701 nM.

For the molecule `CCCCCCCCCCC#Cc1cc(C)c(N(C)S(=O)(=O)c2ccc(OC)cc2)c(C(=O)NO)c1` [Example 358, 5-Dodec-1-ynyl-N-hydroxy-2-[(4-methoxy-benzenesulfonyl)-methyl-amino]-3-methyl-benzamide], the results for the half-inhibitory concentration (IC50) on TACE, at MMP-13 and on MMP-9 were 1050 nM, 107 nM and 101 nM, respectively. Moreover, the MMP-1 % inhibition at MMP-1 is recorded as 25%(10).

As for `CCCCCCCCCCCCc1cc(C)c(N(C)S(=O)(=O)c2ccc(OC)cc2)c(C(=O)NO)c1` [Example 360, 5-Dodecyl-N-hydroxy-2-[(4-methoxy-benzenesulfonyl)-methyl-amino]-3-methyl-benzamide], the 50% inhibitory concentration (IC50) on TACE stood at 1400 nM; on MMP-13, 1260 nM; at MMP-9, 525 nM. Moreover, the MMP-1 % inhibition at MMP-1 is given as 14%(10).

Regarding `COCc1cccc(C(=O)NO)c1N(Cc1cccnc1)S(=O)(=O)c1ccc(OC)cc1` [Example 363, N-Hydroxy-2-[(4-methoxy-benzenesulfonyl)-pyridin-3-ylmethyl-amino]-3-methoxymethyl-benzamide], the IC50 at TACE was found to be 137 nM; on MMP-13, 54 nM; at MMP-9 it was 20 nM; at MMP-1, 449 nM.

In the case of `COc1ccc(S(=O)(=O)N(Cc2cccnc2)c2c(C(=O)NO)cccc2C(=O)OC(C)(C)C)cc1` [Example 367, N-Hydroxy-2-[(4-methoxy-benzenesulfonyl)-pyridin-3-ylmethyl-amino]-isophthalamic acid tert-butyl ester], the IC50 on TACE was 2700 nM; on MMP-13, 13 nM; at MMP-9, 12 nM; on MMP-1, 597 nM.

In the case of `COC(=O)c1cccc(C(=O)NO)c1N(C)S(=O)(=O)c1ccc(OC)cc1` [Example 373, N-Hydroxy-2-[(4-methoxy-benzenesulfonyl)-methyl-amino]-isophthalamic acid methyl ester], the half-maximal inhibitory concentration (IC50) at TACE amounted to 539 nM; on MMP-13, 59 nM; on MMP-9, 26 nM; on MMP-1, 1280 nM.

For `COc1ccc(S(=O)(=O)N(Cc2cccnc2)c2c(C(=O)O)cccc2C(=O)NO)cc1` [Example 374, N-Hydroxy-2-[(4-methoxy-benzenesulfonyl)-pyridin-3-ylmethyl-amino]-isophthalamic acid], the inhibition at 1 µM at TACE (at 1µM concentration) came out at 29%; at MMP-13 (read-out: MMP-13 % inhibition, footnote: 1µM), 17%; on MMP-9 (read-out: MMP-9 % inhibition, footnote: 1µM), 36%. Further, the MMP-1 % inhibition on MMP-1 is recorded as 56%(10).

Take `COc1ccc(S(=O)(=O)N(Cc2ccccn2)c2c(C)cccc2C(=O)NO)cc1` [Example 375, N-Hydroxy-2-[(4-methoxy-benzenesulfonyl)-pyridin-2-ylmethyl-amino]-3-methyl-benzamide]: the half-inhibitory concentration (IC50) on TACE was 356 nM; on MMP-13, 18 nM; on MMP-9 it was 7.1 nM; at MMP-1, 329 nM.

As to `COc1ccc(S(=O)(=O)N(Cc2ccncc2)c2c(C)cccc2C(=O)NO)cc1` [Example 376, N-Hydroxy-2-[(4-methoxy-benzenesulfonyl)-pyridin-4-ylmethyl-amino]-3-methyl-benzamide], the IC50 at TACE was determined as 645 nM; on MMP-13, 18 nM; at MMP-9, 8.4 nM; at MMP-1, 391 nM.

Values taken from EP0938471B1, “THE PREPARATION AND USE OF ORTHO-SULFONAMIDO ARYL HYDROXAMIC ACIDS AS MATRIX METALLOPROTEINASE AND TACE INHIBITORS” (priority 1996, dated 1998).
